Assay results taken from US7419683B2, “Method of inhibiting side effects of pharmaceutical compositions containing amphiphilic vehicles or drug carrier molecules” (United States of America as Represented by the Secretary of …, priority 1998, dated 2008).

How the values were obtained:
[1] = test system: SC5b-9; test: In vitro complement activation in human serum, SC5b-9 ELISA; assay type: biochemical; conditions: for C activation (serum SC5b-9), result in words: human sera, Table 1
Experimental: Non-anticoagulated blood was drawn from healthy volunteers and from cancer patients according to protocols approved, as additions to existing protocols, by the Walter Reed Army Medical Center Human Use Committee, and by the University of Southern California (USC)/Norris Cancer Center Institutional Review Board and General Clinical Research Center. […] Blood was allowed to clot at room temperature and the serum was stored at −80° C. It was thawed and kept at 4° C. before incubation with the test agents.
To assess C activation in vitro we measured the drug-induced rise of two C split products, SC5b-9 and Bb, using ELISA kits from Quidel Corp. (San Diego, Calif.). SC5b-9 is the soluble, S-protein-bound form of the terminal complex, a sensitive measure of C5a formation through both the classical and the alternative pathways, while Bb is the proteolytically active fragment of factor B, a specific marker of C activation through the alternative pathway. The test agents were incubated with the serum in a shaking water bath (80 rpm cycle) for 30 to 60 min at 37° C. at an activator to serum volume ratio of 1:5 or 1:10. […] The reaction was stopped by adding 20 volume of the specimen diluent from the ELISA kits containing PBS, 0.05% Tween-20, protein stabilizers, and 0.01% Thimerosal.

[2] = test system: liposome-induced pulmonary hypertension; test: Inhibition of liposome-induced pulmonary hypertension (PAP) in pigs; assay type: in vivo, pig
Experimental: FIG. 12. The effects of complement inhibitors and indomethacin on liposome-induced pulmonary hypertension. Panel A presents the standard liposome-induced changes in PAP before and at different times after the administration of the indicated inhibitors, each in a different animal. […] Inhibitors were injected in the jugular vein in 4-8 mL PBS, at the following doses: GS1, 1.6 mg/kg (squares), sCR1, 0.2 mg/kg (open circles) and 2 mg/kg (closed circles); indomethacin, 5 mg/kg (triangles).
Experiments were-performed in accordance with the guidelines of the Committee on Animal Care of the Uniformed Services University of the Health Sciences and with the Guide for the Care and the Use of Laboratory Animals (Department of Health and Human Services, Publication No. [NIH] 86-23). Female Yorkshire swine (32-48 kg) were sedated with i.m. ketamine and anesthetized with halothane by nose cone. The trachea was intubated and anesthesia was maintained with halothane (1%). […] Systemic vascular resistance (SVR) and pulmonary vascular resistance (PVR) were calculated from SAP, PAP, CO, CVP and LVEDP, using standard formulas (Fontana, J. L. et al., 1995, Anesth. Analg. 80, 219) Blood pressure values and leads II and V5 of the electrocardiogram (ECG) were obtained continually.

[3] = test system: miniature pigs; conditions: previous study; cited from earlier work
[4] = test system: Cremophor EL-induced complement activation; test: Inhibition of Cremophor EL-induced complement activation (SC5b-9) in human serum; assay type: biochemical; conditions: Cremophor EL 8.8 mg/ml, serum of a healthy subject
Experimental: FIG. 4. Inhibition of Cremophor EL-induced complement activation by soluble complement receptor type 1 (sCR1): dose activity relationship. […] Serum levels of SC5b-9 were measured by enzyme-linked immunoasorbent assay, as described. Bars=mean values with 95% confidence interval, obtained from triplicate wells. The rise of SC5b-9 relative to PBS was statistically significant at *, P=0.0006 and **, P=0.002 (Student's two-sample t test, two-tailed).
To assess C activation in vitro we measured the drug-induced rise of two C split products, SC5b-9 and Bb, using ELISA kits from Quidel Corp. (San Diego, Calif.). SC5b-9 is the soluble, S-protein-bound form of the terminal complex, a sensitive measure of C5a formation through both the classical and the alternative pathways, while Bb is the proteolytically active fragment of factor B, a specific marker of C activation through the alternative pathway. The test agents were incubated with the serum in a shaking water bath (80 rpm cycle) for 30 to 60 min at 37° C. at an activator to serum volume ratio of 1:5 or 1:10. Typically, 5 μl of drug (stock) was added to 45 μl of serum placed in Eppendorf tubes. The reaction was stopped by adding 20 volume of the specimen diluent from the ELISA kits containing PBS, 0.05% Tween-20, protein stabilizers, and 0.01% Thimerosal.

[5] = pigs; cited from earlier work
[6] = test system: LEH-induced complement activation; conditions: human serum, in vitro, cited from earlier work
[7] = test system: C-mediated harmful effects; conditions: in vitro; cited from earlier work

Molecule: CCO [ethanol]
- C activation (serum SC5b-9), result in words [1]: did not cause significant elevation of serum SC5b-9
- SC5b-9 ([1]; subject 2 (healthy donor), dose 0.8% (final serum concentration)): 3.2 µg/mL
- SC5b-9 ([1]; subject 3 (healthy donor), dose 0.4% (final serum concentration)): 0.5 µg/mL
- SC5b-9 ([1]; subject 4 (cancer patient), dose 0.8% (final serum concentration)): 6.6 µg/mL

Molecule: COc1ccc2c(c1)c(CC(=O)O)c(C)n2C(=O)c1ccc(Cl)cc1 [indomethacin]
- effect on pulmonary reaction to 5 mg liposome boluses ([2]; 5 mg/kg i.v., all tested pigs): completely suppressed
- rise of PVR after liposomes with indomethacin treatment [3]: 20%

Molecule: sCR1: Recombinant soluble complement receptor type 1
- dose providing complete suppression of Cremophor EL/ethanol-induced increase of SC5b-9 [4]: 1.8 µg/mL
- doses significantly inhibiting Cremophor EL/ethanol-induced increase of SC5b-9 [4]: > 0.6 µg/mL
- inhibition of PAP response to 5 mg liposome boluses ([2]; 0.2 and 2 mg/kg i.v. (in 2-2 pigs), maximal inhibition): 30-100%
- plasma clearance α-phase t1/2 [5]: 8.3 min
- plasma clearance β-phase t1/2 [5]: 6.05 h
- share of the drug clearing slowly [5]: 31%
- dose providing complete suppression of SC5b-9 formation ([6]; LEH-induced): 20 µg/mL
- doses significantly inhibiting LEH-induced complement activation [6]: > 0.8 µg/mL
- concentration range of potent inhibition of C-mediated harmful effects [7]: 10 to 40 µg/mL

Molecule: CC(=O)O[C@@]12CO[C@@H]1C[C@H](O)[C@@]1(C)C(=O)[C@H](O)C3=C(C)[C@@H](OC(=O)[C@H](O)[C@@H](NC(=O)OC(C)(C)C)c4ccccc4)C[C@@](O)([C@@H](OC(=O)c4ccccc4)[C@H]21)C3(C)C [docetaxel]
- C activation (serum SC5b-9), result in words [1]: caused C activation only when the drug (formulated in Tween-80) was added to human serum together with ethanol
- SC5b-9 ([1]; subject 1 (healthy donor), dose 100 μg/ml (H2O), 30 min 37° C.): 1.8 µg/mL
- SC5b-9 ([1]; subject 1 (healthy donor), dose 100 μg/ml with 0.8% ethanol, 30 min 37° C.): 16.0 µg/mL
- SC5b-9 ([1]; subject 2 (healthy donor), dose 100 μg/ml with 0.8% ethanol): 28.6 µg/mL
- SC5b-9 ([1]; subject 3 (healthy donor), dose 100 μg/ml (H2O)): 0.2 µg/mL
- SC5b-9 ([1]; subject 4 (cancer patient), dose 100 μg/ml with 0.8% ethanol): 38.5 µg/mL

Molecule: CC(=O)O[C@H]1C(=O)[C@@]2(C)[C@H]([C@H](OC(=O)c3ccccc3)[C@]3(O)C[C@H](OC(=O)[C@H](O)[C@@H](NC(=O)c4ccccc4)c4ccccc4)C(C)=C1C3(C)C)[C@]1(OC(C)=O)CO[C@@H]1C[C@@H]2O [Paclitaxel, paclitaxel]
- SC5b-9 ([1]; paclitaxel 100 ug/mL, bar marked * in FIG. 2 (with 95% confidence interval)): 67.4 (65.8-69) ug/ml

Molecule: N.N.O=C([O-])C1(C(=O)[O-])CCC1.[Pt+2] [carboplatin]
- C activation (serum SC5b-9), result in words [1]: did not cause C activation
- SC5b-9 ([1]; subject 2 (healthy donor), dose 100 μg/ml, no ethanol): 3.4 µg/mL
- SC5b-9 ([1]; subject 4 (cancer patient), dose 100 μg/ml, no ethanol): 5.5 µg/mL
